# Key:
# [1] = test system: patients with MDD and metabolic comorbidities; experiment: Post hoc analysis of the Example 1 study: patients with MDD and metabolic comorbidities; format: in vivo, human
# Procedure: Patients with MDD who have metabolic comorbidities face additional adverse events associated with antidepressants (e.g., weight gain, metabolic abnormalities) and often respond poorly. This example presents results from a post hoc analysis of clinical study of Example 1 in patients with MDD and metabolic comorbidities.
# The clinical study of Example 1 enrolled patients with MDD, aged 18-75 years, with HAMD-17 score ≥20 and a MADRS total score ≥28 to 1 of 2 cohorts: 30 mg Cohort and 50 mg Cohort. HAMD-17 responders (≥50% reduction from baseline) at Day 15 continued in study and were assessed for retreatment eligibility.
# Patients with a metabolic comorbidity were identified by the following coded terms in patient history: obesity, hyperlipidemia, hypercholesterolemia, type-2 diabetes mellitus, type-1 diabetes mellitus, glucose tolerance impaired, hypertriglyceridemia, dyslipidemia, metabolic syndrome, and/or diabetic dyslipidemia.
# [2] = test system: post-menopausal women with MDD; experiment: Post hoc analysis of the Example 1 study: post-menopausal women with MDD; format: in vivo, human
# Text: Hormonal changes during early menopause can often affect the metabolism of antidepressants (ADTs). Postmenopausal/older women may not respond well to ADTs. This example presents a post hoc analysis of the study described in Example 1 in post-menopausal women with MDD.
# The study described in Example 1 enrolled patients with MDD, aged 18-75 years, with HAMD-17≥20 and a MADRS total score ≥28 to 1 of 2 cohorts: 30-mg Cohort and 50-mg Cohort. HAMD-17 responders (≥50% reduction from baseline) at Day 15 continued in study and were assessed for repeat-treatment eligibility. Post-menopausal women aged ≥45 were identified based on follicle stimulating hormone >40 at baseline (central lab data) and if medical history coded terms contained ‘menopause’.
# [3] = Day 15 of first treatment cycle, metabolic comorbidities subpopulation
# [4] = metabolic comorbidities subpopulation
# [5] = Day 15, post-menopausal patients
smiles,measurement,setting,value
"C[C@@]1(O)CC[C@H]2[C@H](CC[C@@H]3[C@@H]2CC[C@]2(C)[C@@H](C(=O)Cn4cc(C#N)cn4)CC[C@@H]32)C1 [Compound (1), 1-(2-((3R,5R,8R,9R,10S,13S,14S,17S)-3-hydroxy-3,13-dimethylhexadecahydro-1H-cyclopenta[a]phenanthren-17-yl)-2-oxoethyl)-1H-pyrazole-4-carbonitrile]",Patients not requiring additional treatment courses during their time in the study,[1]; 161/253 who responded to and completed the first treatment cycle,55.9%
same,HAMD-17 remission rate,[1]; [3],37.1%
same,HAMD-17 response rate,[1]; [3],67.3%
same,Mean (SD) CFB in HAMD-17,[1]; [3],−14.8 (7.10)
same,TEAE diarrhea,[1]; [4],6.7%
same,TEAE dizziness,[1]; [4],9.1%
same,TEAE dry mouth,[1]; [4],5.5%
same,TEAE headache,[1]; [4],14.2%
same,TEAE sedation,[1]; [4],5.1%
same,TEAE somnolence,[1]; [4],13.8%
same,TEAE upper respiratory infection,[1]; [4],5.9%
same,TEAEs leading to discontinuation of study drug,[1]; metabolic comorbidities subpopulation (8/253),3.2%
same,TEAEs leading to withdrawal from the study,[1]; metabolic comorbidities subpopulation (11/253),4.3%
same,TEAEs leading to dose reduction,[1]; metabolic comorbidities subpopulation (19/253),7.5%
same,Share of patients with TEAEs that were mild/moderate,[1]; metabolic comorbidities subpopulation (148/167),88.6%
same,Patients with ≥1 TEAE over the study duration,[1]; metabolic comorbidities subpopulation (167/253),66.0%
same,Mean (range) number of total treatment courses,"[1]; metabolic comorbidities subpopulation, first-cycle responders",1.9 (1-5)
same,Tolerability,[1]; patients with MDD and metabolic comorbidities,generally well tolerated
same,Patients not requiring additional courses during their time in the study,[2]; 106/152 post-menopausal patients who responded to and completed treatment cycle 1,42.5%
same,HAMD-17 remission rate,[2]; [5],39.6%
same,HAMD-17 response rate,[2]; [5],75.7%
same,Mean (SD) CFB in HAMD-17,[2]; [5],−16.0 (7.00)
same,TEAE diarrhea,[2]; post-menopausal patients,7.9%
same,TEAE dizziness,[2]; post-menopausal patients,11.8%
same,TEAE dry mouth,[2]; post-menopausal patients,7.2%
same,TEAE headache,[2]; post-menopausal patients,13.2%
same,TEAE insomnia,[2]; post-menopausal patients,6.6%
same,TEAE sedation,[2]; post-menopausal patients,6.6%
same,TEAE somnolence,[2]; post-menopausal patients,12.5%
same,TEAE upper respiratory infection,[2]; post-menopausal patients,7.9%
same,TEAEs leading to discontinuation of study drug,[2]; post-menopausal patients (8/152),5.3%
same,TEAEs leading to withdrawal from the study,[2]; post-menopausal patients (9/152),5.9%
same,TEAEs leading to dose reduction,[2]; post-menopausal patients (16/152),10.5%
same,Share of patients with TEAEs that were mild or moderate,[2]; post-menopausal patients (90/102),88.2%
same,Patients with at least 1 TEAE over the study duration,[2]; post-menopausal patients (102/152),67.1%
same,Mean (range) number of total treatment courses,"[2]; post-menopausal patients, cycle 1 responders",2.2 (1-5)
same,Tolerability,[2]; post-menopausal women,generally well-tolerated

# — US20240245711A1, “A 19-NOR C3,3-DISUBSTITUTED C21-N-PYRAZOLYL STEROID FOR THE TREATMENT OF MAJOR DEPRESSIVE DISORDER” (Sage Therapeutics, Inc., priority 2021, published 2024)
